The record followed here is ChEMBL document CHEMBL3286290, “In vitro screening of pentamidine analogs against bacterial and fungal strains” (Bioorg Med Chem Lett, 2014).

Usually MIC stands for the lowest concentration that inhibits growth of the organism.

Common to all, as to format: functional
In assay [1] the test system is Micrococcus luteus. The assay can be described thus: Antibacterial activity against Micrococcus luteus ATCC 10240 assessed as growth inhibition by M7-A6 method.
In assay [2] the test system is Staphylococcus aureus. The assay is described as follows: Antibacterial activity against Staphylococcus aureus ATCC 6538 assessed as growth inhibition by M7-A6 method.
The subject of assay [3] is Staphylococcus aureus. The assay is described as follows: Antibacterial activity against Staphylococcus aureus ATCC 6538P assessed as growth inhibition by M7-A6 method.
The test system of assay [4] is Micrococcus luteus. The assay can be described thus: Antibacterial activity against Micrococcus luteus ATCC 9341 assessed as growth inhibition by M7-A6 method.
In the next assay the test system is Bacillus cereus. The assay is described as follows: Antibacterial activity against Bacillus cereus ATCC 11778 assessed as growth inhibition by M7-A6 method.
The test system of assay [5] is Pseudomonas aeruginosa. The assay is described as follows: Antibacterial activity against Pseudomonas aeruginosa ATCC 15442 assessed as growth inhibition by M7-A6 method.
The subject of another assay is Bacillus subtilis. The assay is described as follows: Antibacterial activity against Bacillus subtilis ATCC 6633 assessed as growth inhibition by M7-A6 method.
Assay [6] has as its system Escherichia coli. The assay is described as follows: Antibacterial activity against Escherichia coli ATCC 10536 assessed as growth inhibition by M7-A6 method.
The subject of assay [7] is Candida albicans. The assay is described as follows: Antifungal activity against Candida albicans ATCC 10231 assessed as growth inhibition by M7-A6 method.
The next assay relates to Candida parapsilosis. The assay is described as follows: Antifungal activity against Candida parapsilosis ATCC 22019 assessed as growth inhibition by M7-A6 method. The note with it: Lodderomyces parapsilosis.
Assay [8] deals with Escherichia coli. The assay can be described thus: Antibacterial activity against Escherichia coli ATCC 8739 assessed as growth inhibition by M7-A6 method.
Assay [9] concerns Candida albicans. The assay can be described thus: Antifungal activity against Candida albicans ATCC 2091 assessed as growth inhibition by M7-A6 method.
The subject of assay [10] is Pseudomonas aeruginosa. The assay can be described thus: Antibacterial activity against Pseudomonas aeruginosa ATCC 9027 assessed as growth inhibition by M7-A6 method.
For another assay, the system named is Saccharomyces cerevisiae. The assay is described as follows: Antifungal activity against Saccharomyces cerevisiae ATCC 9763 assessed as growth inhibition by M7-A6 method.
The subject of a further assay is Aspergillus brasiliensis. The assay can be described thus: Antifungal activity against Aspergillus brasiliensis ATCC 16404 assessed as growth inhibition by M7-A6 method.

In brackets after ≈: the same amount, converted by molar mass.

`COc1cc(C(=N)N)cc(OC)c1OCCOCCOc1c(OC)cc(C(=N)N)cc1OC`: the minimal inhibitory concentration (MIC) is 0.051 mM (≈ 23.6 µg/mL) with Micrococcus luteus [1]; 0.21 mM (≈ 97.1 µg/mL) in the assay on Staphylococcus aureus [2]; 0.21 mM (≈ 97.1 µg/mL) with Staphylococcus aureus [3]; 0.017 mM (≈ 7.86 µg/mL) in the assay on Micrococcus luteus [4]; 17 mM (≈ 7840 µg/mL) in the assay with Bacillus cereus; more than 17 mM in the assay with Pseudomonas aeruginosa [5]. Moreover, the MIC in the assay on Bacillus subtilis was 0.42 mM (≈ 194 µg/mL); in the assay with Escherichia coli [6], 17 mM (≈ 7840 µg/mL); in the assay with Candida albicans [7], more than 17 mM; in the assay on Candida parapsilosis, more than 17 mM; with Escherichia coli [8], 17 mM (≈ 7840 µg/mL); in the assay on Candida albicans [9] it was more than 17 mM. Also, the MIC in the assay with Pseudomonas aeruginosa [10] was more than 17 mM.
For `COc1cc(C(=N)N)ccc1OCCOCCOc1ccc(C(=N)N)cc1OC`, the MIC in the assay with Micrococcus luteus [1] came out at 0.52 mM (≈ 209 µg/mL); in the assay on Staphylococcus aureus [2], 0.26 mM (≈ 105 µg/mL); in the assay with Saccharomyces cerevisiae it was 10.5 mM (≈ 4230 µg/mL); with Staphylococcus aureus [3], 0.52 mM (≈ 209 µg/mL); in the assay with Micrococcus luteus [4] it was 2.1 mM (≈ 845 µg/mL); in the assay on Bacillus cereus, 1.05 mM (≈ 423 µg/mL). In addition, the MIC was more than 21 mM in the assay on Pseudomonas aeruginosa [5]; 2.1 mM (≈ 845 µg/mL) with Bacillus subtilis; 10.5 mM (≈ 4230 µg/mL) in the assay on Escherichia coli [6]; 10.5 mM (≈ 4230 µg/mL) with Candida albicans [7]; 21 mM (≈ 8470 µg/mL) in the assay on Aspergillus brasiliensis; 5.26 mM (≈ 2120 µg/mL) with Candida parapsilosis. Moreover, the values for the MIC in the assay on Escherichia coli [8], in the assay on Candida albicans [9] and with Pseudomonas aeruginosa [10] were 2.1 mM (≈ 845 µg/mL), 10.5 mM (≈ 4230 µg/mL) and more than 21 mM, respectively.
`COc1cc(C(=N)N)cc(OC)c1OCCN(C)CCOc1c(OC)cc(C(=N)N)cc1OC`: the MIC in the assay on Micrococcus luteus [1] was 1.52 mM (≈ 723 µg/mL); in the assay on Staphylococcus aureus [2], 7.61 mM (≈ 3620 µg/mL); in the assay on Staphylococcus aureus [3] it was 7.61 mM (≈ 3620 µg/mL); in the assay with Micrococcus luteus [4] it was 0.76 mM (≈ 361 µg/mL); in the assay on Bacillus cereus, 7.61 mM (≈ 3620 µg/mL); in the assay on Pseudomonas aeruginosa [5], more than 15.2 mM. Moreover, the MIC is 1.52 mM (≈ 723 µg/mL) in the assay with Bacillus subtilis; 15.2 mM (≈ 7240 µg/mL) in the assay with Escherichia coli [6]; more than 15.2 mM in the assay with Candida albicans [7]; more than 15.2 mM in the assay on Candida parapsilosis; 7.61 mM (≈ 3620 µg/mL) in the assay on Escherichia coli [8]; more than 15.2 mM in the assay with Candida albicans [9]. Further, the MIC in the assay with Pseudomonas aeruginosa [10] was more than 15.2 mM.
Take `N=C(N)c1ccc(OCCOCCOc2ccc(C(=N)N)cc2)cc1`: the MIC in the assay with Micrococcus luteus [1] was 0.011 mM (≈ 3.77 µg/mL); in the assay with Staphylococcus aureus [2], 0.55 mM (≈ 188 µg/mL); in the assay on Saccharomyces cerevisiae, 11.1 mM (≈ 3790 µg/mL); in the assay with Staphylococcus aureus [3], 0.55 mM (≈ 188 µg/mL); in the assay with Micrococcus luteus [4], 0.0044 mM (≈ 1.51 µg/mL); in the assay on Bacillus cereus, 0.55 mM (≈ 188 µg/mL). Besides, the MIC with Pseudomonas aeruginosa [5] was 11.1 mM (≈ 3790 µg/mL); with Bacillus subtilis, 0.55 mM (≈ 188 µg/mL); in the assay on Escherichia coli [6] it was 0.55 mM (≈ 188 µg/mL); in the assay on Candida albicans [7], more than 22.2 mM; in the assay with Aspergillus brasiliensis, more than 22.2 mM; with Candida parapsilosis it was 0.066 mM (≈ 22.6 µg/mL). Moreover, the values for the MIC with Escherichia coli [8], in the assay with Candida albicans [9] and in the assay on Pseudomonas aeruginosa [10] were 0.55 mM (≈ 188 µg/mL), more than 22.2 mM and 11.1 mM (≈ 3790 µg/mL), respectively.
Regarding `CN(CCOc1ccc(C(=N)N)cc1)CCOc1ccc(C(=N)N)cc1`, the MIC was 1.06 mM (≈ 377 µg/mL) in the assay on Micrococcus luteus [1]; 21.1 mM (≈ 7500 µg/mL) in the assay with Staphylococcus aureus [2]; 10.6 mM (≈ 3770 µg/mL) in the assay on Staphylococcus aureus [3]; 1.06 mM (≈ 377 µg/mL) with Micrococcus luteus [4]; 1.06 mM (≈ 377 µg/mL) in the assay on Bacillus cereus; more than 21.1 mM with Pseudomonas aeruginosa [5]. For the same compound, the MIC in the assay on Bacillus subtilis was 2.11 mM (≈ 750 µg/mL); with Escherichia coli [6] it was 21.1 mM (≈ 7500 µg/mL); in the assay on Candida albicans [7] it was more than 21.1 mM; with Candida parapsilosis, 10.6 mM (≈ 3770 µg/mL); in the assay on Escherichia coli [8], 21.1 mM (≈ 7500 µg/mL); with Candida albicans [9], more than 21.1 mM. In addition, the MIC in the assay on Pseudomonas aeruginosa [10] was more than 21.1 mM.
Regarding `COc1cc(C(=N)N)ccc1OCCN(C)CCOc1ccc(C(=N)N)cc1OC`, the MIC was 0.41 mM (≈ 170 µg/mL) in the assay with Micrococcus luteus [1]; 8.13 mM (≈ 3380 µg/mL) in the assay on Staphylococcus aureus [2]; 8.13 mM (≈ 3380 µg/mL) with Staphylococcus aureus [3]; 0.2 mM (≈ 83.1 µg/mL) in the assay with Micrococcus luteus [4]; 0.1 mM (≈ 41.5 µg/mL) with Bacillus cereus; more than 16.3 mM in the assay with Pseudomonas aeruginosa [5]. Besides, the MIC was 0.81 mM (≈ 337 µg/mL) with Bacillus subtilis; 16.3 mM (≈ 6760 µg/mL) in the assay with Escherichia coli [6]; more than 16.3 mM in the assay on Candida albicans [7]; more than 16.3 mM in the assay with Candida parapsilosis; 8.13 mM (≈ 3380 µg/mL) in the assay on Escherichia coli [8]; more than 16.3 mM in the assay with Candida albicans [9]. Also, in the assay with Pseudomonas aeruginosa [10], the MIC is more than 16.3 mM.
